Data from article PMC9823356, “Inhibition of Cancer Cell Proliferation and Bacterial Growth by Silver(I) Complexes Bearing a CH3-Substituted Thiadiazole-Based Thioamide” (Molecules, 2023).

How the values were obtained:
[1] = tested on: MRC5 human normal lung cells; assay: MTT cytostatic/cytotoxic assay; format: cell-based; settings: MRC5, 48 h treatment
Method: (§1) The cell lines were obtained from the American Type of Culture collection (ATCC), except HuP-T3 which was kindly donated from University of Crete, School of Medicine, Greece, and were grown in different culture medium according to the instructions.
(§2) For the determination of the cell viability, it was employed the MTT assay. Cells were plated in 96-well plate at a density of 1 × 10^4 cells/mL per well and maintained for 72 h at 37 °C in a 5% CO2 incubator and grown as monolayers. […] The viability of cultured cells was estimated by a (3-(4,5-imethylthiazol-2-yl)-2,5-diphenyltetrazolium bromide (MTT) metabolic assay as previously described.
(§3) In brief, MTT (Sigma, St Louis, Missouri, USA) was dissolved in PBS in a concentration of 5 mg/mL, filter sterilized, and stored at 4 °C. Then, 50 μL of stock solution was added to each culture and incubated for 3 h at 37 °C. Formazan crystals were solubilized by DMSO (100 μL). Absorbance of the converted dye was measured at a wavelength of 540 nm on ELISA reader (VersaMax Microplate Reader Orleans, USA). […] Using seven absorbance measurements [time 24 h (Ct24), control growth 72 h (Ct72), and test growth in the presence of drug at five concentration levels (Tt72x)], the percentage of growth was calculated at each level of the drug concentrations. The percentage growth inhibition was calculated according to National Cancer Institute (NCI) as: {[(Tt72x) − (Ct24)]/[(Ct72) − (Ct24)]} × 100 for concentrations for which Tt72x>Ct24 and {(Tt72x) − (Ct24)]/(Ct24)} × 100 for concentrations for which Tt72x<Ct24. […] All experiments were carried out in triplicate. A significant difference was presumed to exist when p ≤ 0.05 (two tailed paired t test).

[2] = tested on: DMS114 small cell lung cancer cells; assay: MTT cytostatic/cytotoxic assay; format: cell-based, human; settings: DMS114, 48 h treatment
Method: as §1, §2
as §3, with “Using seven absorbance measurements [time 24 h (Ct24), control growth 72 h (Ct72), and test growth in the presence of drug at five concentration levels (Tt72x)], the percentage of growth was calculated at each level of the drug concentrations.” left out

[3] = tested on: SKOV-3 ovarian cancer cells; assay: MTT cytostatic/cytotoxic assay; format: cell-based, human; settings: SKOV-3, 48 h treatment
Method: as §1, §2
as §3, with “Using seven absorbance measurements [time 24 h (Ct24), control growth 72 h (Ct72), and test growth in the presence of drug at five concentration levels (Tt72x)], the percentage of growth was calculated at each level of the drug concentrations.” left out

[4] = Reduction of hydrogen peroxide; settings: compound 0.1 mM, 20 min, phosphate buffer pH 7.4
Method: In vitro antioxidant activity studies for 1–4 and their free ligands were performed in order to determine their ability to scavenge DPPH, and ABTS free radicals and to reduce H2O2 and was compared with the antioxidant capacity of reference compounds (NDGA, BHT, trolox and ascorbic acid).
The absorbance was measured at 230 nm after 20 min. The antioxidant activity of the compounds was expressed as percent reduction of H2O2 (%H2O2). Ascorbic acid (or vitamin C) was used as an appropriate standard.

[5] = tested on: EB–DNA conjugate (CT DNA); assay: EB-DNA competitive binding, fluorescence quenching; set-up: species or system calf
Excerpt: The potential EB-displacing ability of the compounds was studied by a stepwise addition of a compound’s solution into the EB–DNA solution. The resultant changes were monitored by recording the variation of fluorescence emission spectra with excitation wavelength at 540 nm. […] The Stern-Volmer constant (KSV, in M^−1) is used to evaluate the quenching efficiency for each compound according to the Stern-Volmer equation (Equation (2)):(2) Io/I=1+kqτ0[Q]=1+KSV[Q] where Io and I are the emission intensities of the EB–DNA solution in the absence and the presence of the quencher, respectively, [Q] is the concentration of the quencher, τo = the average lifetime of the emitting system without the quencher and kq = the quenching constant. KSV may be obtained from the Stern-Volmer plots by the slope of the diagram Io/I versus [Q]. Taking τo = 23 ns as the fluorescence lifetime of the EB–DNA system, the quenching constants (kq, in M^−1s^−1) of the compounds can be determined according to Equation (3):KSV = kqτo(3)

[6] = molecular target: T1, BSA (bovine serum albumin) (Bos taurus, UniProt P02769); assay: Serum albumin tryptophan fluorescence quenching; format: binding
T1 construct: purchased
Method: (§4) The serum albumin (SA) binding study was performed by tryptophan fluorescence quenching experiments using BSA (3 μM) or HSA (3 μM) in buffer (containing 1 mM trisodium citrate and 150 mM NaCl at pH 7.0).
(§5) The Stern-Volmer and Scatchard graphs are used in order to study the interaction of a quencher with serum albumins. According to Stern-Volmer quenching equation (Equation (2)), where Io = the initial tryptophan fluorescence intensity of SA, I = the tryptophan fluorescence intensity of SA after the addition of the quencher, kq = the quenching constant, KSV = the Stern-Volmer constant, τo = the average lifetime of SA without the quencher, [Q] = the concentration of the quencher. KSV (M^–1) can be obtained by the slope of the diagram Io/I versus [Q], and subsequently the quenching constant (kq, M^–1s^–1) is calculated from Equation (3) with τ0 = 10^–8 s as fluorescence lifetime of tryptophan in SA.
(§6) From the Scatchard equation (5) ΔΙ/Ιο/Q=nK−kΔΙ/Ιο where, n is the number of binding sites per albumin and K is the SA-binding constant, K (in M^–1) is calculated from the slope in plots ΔΙ/Ιο/Q versus ΔΙ/Ιο and n is given by the ratio of y intercept to the slope.

[7] = molecular target: T2, HSA (human serum albumin) (Homo sapiens, UniProt P02768); assay: Serum albumin tryptophan fluorescence quenching; format: binding
T2 construct: purchased
Method: as §4, §5, §6

calf-thymus (CT) DNA = assay: CT DNA interaction by UV-visible spectroscopy; settings: upon addition of CT DNA
Method: The UV-visible spectra of CT DNA solution (1.5 × 10^−4 M) were recorded in the presence of each compound at diverse [compound]/[DNA] mixing ratios (r).

[8] = cytocidal/cytotoxic, read-out: IC50 (the source's name)

T2 sequence (P02768 25-609): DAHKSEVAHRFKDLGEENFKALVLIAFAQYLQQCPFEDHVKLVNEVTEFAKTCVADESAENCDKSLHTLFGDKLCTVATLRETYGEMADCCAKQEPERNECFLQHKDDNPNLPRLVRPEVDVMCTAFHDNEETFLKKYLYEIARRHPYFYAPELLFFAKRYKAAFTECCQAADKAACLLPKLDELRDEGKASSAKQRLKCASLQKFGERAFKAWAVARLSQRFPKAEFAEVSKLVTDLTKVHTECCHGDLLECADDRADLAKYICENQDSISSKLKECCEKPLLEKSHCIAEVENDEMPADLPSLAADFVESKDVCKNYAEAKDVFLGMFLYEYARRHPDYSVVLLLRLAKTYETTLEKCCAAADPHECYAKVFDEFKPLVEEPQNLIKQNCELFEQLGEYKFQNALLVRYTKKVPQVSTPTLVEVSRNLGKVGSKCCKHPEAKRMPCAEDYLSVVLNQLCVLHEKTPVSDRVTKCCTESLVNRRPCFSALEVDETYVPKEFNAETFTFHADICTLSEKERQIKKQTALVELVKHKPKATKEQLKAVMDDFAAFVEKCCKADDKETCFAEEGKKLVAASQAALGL
T1 sequence (P02769 25-607): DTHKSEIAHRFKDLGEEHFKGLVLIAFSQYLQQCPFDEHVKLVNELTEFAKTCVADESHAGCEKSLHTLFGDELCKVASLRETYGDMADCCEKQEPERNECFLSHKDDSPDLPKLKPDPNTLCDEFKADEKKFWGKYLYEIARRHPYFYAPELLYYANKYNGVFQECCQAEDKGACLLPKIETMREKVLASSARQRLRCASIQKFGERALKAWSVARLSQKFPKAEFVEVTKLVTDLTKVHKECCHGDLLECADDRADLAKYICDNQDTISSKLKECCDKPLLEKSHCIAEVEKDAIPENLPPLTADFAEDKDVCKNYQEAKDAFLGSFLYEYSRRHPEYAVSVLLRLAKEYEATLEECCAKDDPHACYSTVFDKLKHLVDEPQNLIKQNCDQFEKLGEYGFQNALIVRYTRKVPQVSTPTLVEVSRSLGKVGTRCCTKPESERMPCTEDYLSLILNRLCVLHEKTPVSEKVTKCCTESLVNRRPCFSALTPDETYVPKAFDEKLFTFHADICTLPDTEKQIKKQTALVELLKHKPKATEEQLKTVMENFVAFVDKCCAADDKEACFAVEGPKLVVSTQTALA

## [Ag(mtdztH)(dppe)(NO3)]n [Compound 4]
[1]; cytocidal/cytotoxic
  IC50: 4.4 ± 0.08 µM
[1]; growth inhibition
  GI50: 1200 ± 50 nM
[1]; total growth inhibition
  TGI: 2.8±0.05 μΜ
[2]; [8]
  LC50: 3.1 ± 0.05 µM
[2]; growth inhibition
  GI50: 500 ± 40 nM
[2]; total growth inhibition
  TGI: 1.0±0.05 μΜ
[3]; [8]
  LC50: 2300 ± 50 nM
[3]; growth inhibition
  GI50: 1000 ± 20 nM
[3]; total growth inhibition
  TGI: 2.0±0.03 μΜ
[4]
  H2O2 reducing ability (%H2O2): 35.17±1.96%
[5]
  EB-DNA Stern–Volmer constant KSV: 5.68 (±0.20) × 10^4 M^−1
[5]; λex 540 nm
  EB–DNA fluorescence quenching ΔI/Iο: 27.6%
[6]; λex 295 nm, λem 350 nm
  decrease in BSA fluorescence: 44.5%
[6]; τ0 = 10^–8 s
  emission-quenching constant kq: 7.15 (±0.40) × 10^12 M^−1s^−1
[7]; Scatchard equation
  binding constant K: 7.21 (±0.53) × 10^4 M^−1
[7]; λex 295 nm, λem 338 nm
  HSA emission quenching: 23%
[7]; τ0 = 10^–8 s
  emission-quenching constant kq: 5.11 (±0.37) × 10^11 M^−1s^−1
calf-thymus (CT) DNA; DMSO solution, + hyperchromism, – hypochromism
  percentage of hyper-/hypochromism ΔA/Aο: –13%
calf-thymus (CT) DNA
  hypochromism (intensity decrease) of absorption band at 272 nm: up to 13%
